{
  "source": "patent US20250368623A1",
  "about": "“PYRIDAZINONE-DERIVED COMPOUNDS FOR THE MODULATION OF MYC AND FOR MEDICAL USES” (GENETIC INTELLIGENCE, INC, priority 2022, published 2025)",
  "key": {"HepG2 [1]": {"test_system": "HepG2", "experiment": "CCK-8 cell viability assay, HepG2", "format": "cell-based", "conditions": "Homo sapiens; CCK-8, HepG2, 2-day or 3-day incubation, cytotoxic effect", "experimental": "The effect of test compounds on cell viability is determined using the CCK-8 assay kit (Dojindo CK04-1000) according to the following protocol. The human cancer cell lines (e.g., A549, HepG2, JeKo-1, MDA-MB-231, etc.) and non-cancer human cell lines (e.g., HEK-293, HaCaT, etc.), are seeded at 20,000 cells per well in a 96-well plate. After 1 day, the cells are treated with test compounds at various final concentrations (e.g., 10 nM, 31.6 nM, 100 nM, 316 nM, 1 μM, 3.16 μM, 10 μM, 20 μM, etc.). After a 2-day or 3-day incubation period, 10 μL of CCK-8 solution, which contains the WST-8 dye, is added to each well according to the kit manufacturer's protocol. After incubation for 1-4 hours, the absorbance at 450 nm is measured using a microplate reader. The absorbance at 450 nm measures the amount of WST-8 that is reduced to WST-8 formazan by cellular dehydrogenases, which is directly proportional to the number of living cells. The cytotoxic effect of test compounds at different concentrations is calculated by subtracting from 1 the ratio of absorbance of the compound-treated sample at 450 nm to that of the no-compound, solvent only (DMSO)-treated sample. […] The IC50 values for the cytotoxic effect of each test compound in A549, HepG2, JeKo-1, and/or MDA-MB-231 cells are determined by plotting a dose-response curve to calculate the concentration of test compound that produces half of the maximum cytotoxic effect."}, "MYC RNA": {"test_system": "MYC RNA", "experiment": "RT-qPCR of MYC RNA in human cancer cell lines", "format": "cell-based", "conditions": "24 h, about 1 μM, 1-day incubation, e.g., A549, HepG2, beta-actin normalized, vs DMSO, read-out: % reduction of MYC RNA", "method": "The level of reduction of MYC RNA following treatment with test compounds is assessed using RT-qPCR according to the following protocol. The human cancer cell lines (e.g., A549, HepG2) are seeded at 20,000 cells per well in a 96-well plate. After 1 day, the cells are treated with test compounds at a final concentration of about 1 μM. After a 1-day incubation period, the supernatant is removed from the wells and lysis solution from the Cells-to-CT 1-Step Power SYBR Green Kit (Invitrogen A25599) is added to create cell lysates, according to the kit manufacturer's protocol. The kit manufacturer's protocol is then followed to perform RT-qPCR for each sample using a pair of MYC-specific primers (e.g., SEQ ID NO: 4 and SEQ ID NO: 5) to detect MYC RNA, as well as a pair of beta-actin-specific primers (e.g., SEQ ID NO: 6 and SEQ ID NO: 7) to detect beta-actin RNA, which serves as a loading control. The relative expression levels of MYC and beta-actin RNAs are calculated using a standard curve generated from a dilution series of untreated cell lysates. The normalized level of MYC RNA following treatment with a test compound is calculated by dividing the relative expression level of MYC in the sample by the relative expression level of beta actin in the same sample. The value so obtained is presented as a percentage of that of the no-compound, solvent only (DMSO)-treated sample. A lower percentage of MYC RNA in a sample with respect to the DMSO-treated sample indicates greater percentage reduction in MYC RNA levels due to the test compound, and vice versa."}, "HepG2 [2]": {"test_system": "HepG2", "experiment": "CellTiter-Glo 2.0 cell viability assay, HepG2", "format": "cell-based", "conditions": "Homo sapiens, 48 h; CellTiter-Glo 2.0, HepG2, 2-day incubation", "experimental": "(§2) The effect of test compounds on cell viability is also determined using the CellTiter-Glo 2.0 assay kit (Promega G9241) according to the following protocol. The human cancer cell line (e.g., HepG2) and a non-cancer human cell line (e.g., HEK-293), are seeded at 20,000 cells per well in a 96-well plate. After 1 day, the cells are treated with test compounds at various concentrations (e.g., 10 nM, 31.6 nM, 100 nM, 316 nM, 1 μM, 3.16 μM, 10 μM, 20 μM, etc.). After a 2-day incubation period, the CellTiter-Glo 2.0 assay is performed according to the kit manufacturer's protocol. […] The contents are mixed for 2 minutes on an orbital shaker to induce cell lysis, and incubated for 10 minutes at room temperature, following which the luminescent signal is measured using a microplate reader. […] The cytotoxic effect of test compounds at different concentrations is calculated by subtracting from 1 the ratio of the luminescence signal of the compound-treated sample to that of the no-compound, solvent only (DMSO)-treated sample. […] The IC50 values for the cytotoxic effect of each test compound in HepG2 cells are determined by plotting a dose-response curve to calculate the concentration of test compound that produces half of the maximum cytotoxic effect. […]"}, "HEK-293": {"test_system": "HEK-293", "experiment": "CellTiter-Glo 2.0 cell viability assay, HEK-293", "format": "cell-based", "conditions": "Homo sapiens, HEK293, 48 h; CellTiter-Glo 2.0, HEK-293, 2-day incubation", "experimental": "as §2"}, "JeKo-1": {"test_system": "JeKo-1", "experiment": "CCK-8 cell viability assay, JeKo-1", "format": "cell-based", "conditions": "Homo sapiens; CCK-8, JeKo-1, 2-day or 3-day incubation, cytotoxic effect", "method": "(§1) The effect of test compounds on cell viability is determined using the CCK-8 assay kit (Dojindo CK04-1000) according to the following protocol. The human cancer cell lines (e.g., A549, HepG2, JeKo-1, MDA-MB-231, etc.) and non-cancer human cell lines (e.g., HEK-293, HaCaT, etc.), are seeded at 20,000 cells per well in a 96-well plate. After 1 day, the cells are treated with test compounds at various final concentrations (e.g., 10 nM, 31.6 nM, 100 nM, 316 nM, 1 μM, 3.16 μM, 10 μM, 20 μM, etc.). After a 2-day or 3-day incubation period, 10 μL of CCK-8 solution, which contains the WST-8 dye, is added to each well according to the kit manufacturer's protocol. After incubation for 1-4 hours, the absorbance at 450 nm is measured using a microplate reader. The absorbance at 450 nm measures the amount of WST-8 that is reduced to WST-8 formazan by cellular dehydrogenases, which is directly proportional to the number of living cells. The cytotoxic effect of test compounds at different concentrations is calculated by subtracting from 1 the ratio of absorbance of the compound-treated sample at 450 nm to that of the no-compound, solvent only (DMSO)-treated sample. A higher number indicates a greater cytotoxic effect of the test compound on cells (corresponding to a greater reduction in cellular dehydrogenase activity), and vice versa. The IC50 values for the cytotoxic effect of each test compound in A549, HepG2, JeKo-1, and/or MDA-MB-231 cells are determined by plotting a dose-response curve to calculate the concentration of test compound that produces half of the maximum cytotoxic effect. The cytotoxic effect and IC50 of test compounds are also measured in a non-cancer human cell line (e.g., HEK-293, and/or HaCaT) as a proxy for healthy cells to determine the therapeutic window of the test compounds (i.e., the concentration range at which the test compounds selectively kill cancer cells but not healthy cells). The therapeutic index of a test compound is defined herein as its IC50 in HEK-293 cells divided by its IC50 in HepG2 cells."}, "MDA-MB-231": {"test_system": "MDA-MB-231", "experiment": "CCK-8 cell viability assay, MDA-MB-231", "format": "cell-based", "conditions": "Homo sapiens; CCK-8, MDA-MB-231, 2-day or 3-day incubation, cytotoxic effect", "method": "as §1"}, "MYC protein": {"test_system": "MYC protein", "experiment": "Western blot of MYC protein in human cancer cell lines", "format": "cell-based", "conditions": "about 1 μM, 2-day incubation, e.g., A549 or HepG2, GAPDH loading control, vs DMSO", "method": "The level of reduction of MYC protein following treatment with test compounds is also assessed by Western blot according to the following protocol. The human cancer cell lines (e.g., A549 or HepG2) are seeded at 20,000 cells per well in a 96-well plate. After 1 day, the cells are treated with test compounds at a final concentration of about 1 μM. After a 2-day incubation period, the supernatant is removed from the wells and RIPA buffer is added to create cell lysates. The lysates are analyzed by Western blot and probed with a MYC-specific antibody (e.g., Proteintech 10828-1-AP) together with a GAPDH-specific antibody (e.g., Proteintech 10494-1-AP) to serve as loading control. The intensities of Western blot bands are quantified by FIJI (Image J). The relative expression value of MYC following treatment with a test compound is calculated by dividing the intensity of the MYC band of the sample with the intensity of its own GAPDH band. The value so obtained is presented as a percentage of that of the no-compound, solvent only (DMSO)-treated sample. A lower percentage of MYC protein in a sample with respect to the DMSO-treated sample indicates greater percentage reduction in MYC protein level due to the test compound, and vice versa."}, "[3]": {"test_system": "caspase 3/7 activation in HepG2", "experiment": "ApoTox-Glo Triplex assay, caspase 3/7 activation in HepG2", "format": "cell-based, human", "conditions": "vs DMSO", "experimental": "The effects of test compounds on cell viability and apoptosis are determined using the ApoTox-Glo Triplex assay kit (Promega G6320) according to the following protocol. The human cancer cell line (e.g., HepG2) and a non-cancer human cell line (e.g., HEK-293), are seeded at 20,000 cells per well in a 96-well plate. After 1 day, the cells are treated with test compounds at various final concentrations (e.g., 10 nM, 31.6 nM, 100 nM, 316 nM, 1 μM, 3.16 μM, 10 μM, 20 μM, etc.). After a 2-day incubation period, the ApoTox-Glo Triplex assay is performed according to the kit manufacturer's protocol. In brief, 20 μL of viability/cytotoxicity reagent containing both GF-AFC substrate (cell-permeant substrate to measure live-cell protease activity) and bis-AAF-R110 substrate (cell-impermeant substrate to measure dead-cell protease activity) is added to each sample, and briefly mixed by orbital shaking (300-500 rpm for ˜30 seconds). After incubation for 30 minutes at 37° C., the fluorescence signal is measured at two wavelength sets (400Ex/505Em) and (485Ex/520Em) to assess live-cell protease activity and dead-cell protease activity respectively. Following the measurement of the live-cell and dead-cell protease activities, 25 μl of Caspase-Glo 3/7 Reagent containing a luminogenic DEVD-peptide substrate for caspase-3/7 and thermostable luciferase is added to each sample, and briefly mixed by orbital shaking (1300-1500 rpm for ˜30 seconds). After incubation for 30 minutes at room temperature, the luminescent signal is measured using a microplate reader. The luminescent signal directly correlates with caspase-3/7 activity, which is a key indicator of apoptosis.\nThe fold-change of caspase 3/7 activation is calculated by dividing the luminescence signal of the compound-treated sample with that of the no-compound, solvent only (DMSO)-treated sample."}, "A549": {"test_system": "A549", "experiment": "CCK-8 cell viability assay, A549", "format": "cell-based", "conditions": "Homo sapiens; CCK-8, A549, 2-day or 3-day incubation, cytotoxic effect", "experimental": "The effect of test compounds on cell viability is determined using the CCK-8 assay kit (Dojindo CK04-1000) according to the following protocol. The human cancer cell lines (e.g., A549, HepG2, JeKo-1, MDA-MB-231, etc.) and non-cancer human cell lines (e.g., HEK-293, HaCaT, etc.), are seeded at 20,000 cells per well in a 96-well plate. After 1 day, the cells are treated with test compounds at various final concentrations (e.g., 10 nM, 31.6 nM, 100 nM, 316 nM, 1 μM, 3.16 μM, 10 μM, 20 μM, etc.). After a 2-day or 3-day incubation period, 10 μL of CCK-8 solution, which contains the WST-8 dye, is added to each well according to the kit manufacturer's protocol. After incubation for 1-4 hours, the absorbance at 450 nm is measured using a microplate reader. The absorbance at 450 nm measures the amount of WST-8 that is reduced to WST-8 formazan by cellular dehydrogenases, which is directly proportional to the number of living cells. The cytotoxic effect of test compounds at different concentrations is calculated by subtracting from 1 the ratio of absorbance of the compound-treated sample at 450 nm to that of the no-compound, solvent only (DMSO)-treated sample. […]"}, "HepG2 [4]": {"test_system": "HepG2", "experiment": "ApoTox-Glo Triplex assay (live-dead ratio), HepG2", "format": "cell-based", "conditions": "Homo sapiens, 48 h, HepG2, 2-day incubation", "experimental": "The effects of test compounds on cell viability and apoptosis are determined using the ApoTox-Glo Triplex assay kit (Promega G6320) according to the following protocol. The human cancer cell line (e.g., HepG2) and a non-cancer human cell line (e.g., HEK-293), are seeded at 20,000 cells per well in a 96-well plate. After 1 day, the cells are treated with test compounds at various final concentrations (e.g., 10 nM, 31.6 nM, 100 nM, 316 nM, 1 μM, 3.16 μM, 10 μM, 20 μM, etc.). After a 2-day incubation period, the ApoTox-Glo Triplex assay is performed according to the kit manufacturer's protocol. […] After incubation for 30 minutes at 37° C., the fluorescence signal is measured at two wavelength sets (400Ex/505Em) and (485Ex/520Em) to assess live-cell protease activity and dead-cell protease activity respectively. […] After incubation for 30 minutes at room temperature, the luminescent signal is measured using a microplate reader. […]\nThe cytotoxic effect of test compounds according to the ApoTox-Glo Triplex assay is calculated as follows. The live-dead ratio is calculated by dividing the fluorescence signal for live-cell protease activity with the fluorescence signal for dead-cell protease activity. […]"}},
  "data": [
    {"compound": "Cc1nc(C)c(-c2ccc(=O)n(CC3CCN(c4ncnc5ncccc45)CC3)n2)s1", "note": "[6-(2,4-dimethylthiazol-5-yl)-2-((1-(pyrido[2,3-d]pyrimidin-4-yl)piperidin-4-yl)methyl)pyridazin-3(2H)-one]", "values": [
      {"measurement": "IC50", "setting": "HepG2 [1]", "value": 300, "unit": "nM"},
      {"measurement": "inhibition at 1 µM", "setting": "MYC RNA", "value": 45, "unit": "%"},
      {"measurement": "IC50", "setting": "HepG2 [2]", "value": 100, "unit": "nM"},
      {"measurement": "IC50", "setting": "HEK-293", "value": 72.9, "unit": "µM"},
      {"measurement": "IC50", "setting": "JeKo-1", "value": 400, "unit": "nM"},
      {"measurement": "IC50", "setting": "MDA-MB-231", "value": 800, "unit": "nM"},
      {"measurement": "% reduction of MYC protein", "setting": "MYC protein", "value": 67, "unit": "%"},
      {"measurement": "Fold-change of caspase 3/7 activation", "setting": "[3]; HepG2, compound concentration 10 nM", "value": 1.245},
      {"measurement": "Fold-change of caspase 3/7 activation", "setting": "[3]; HepG2, compound concentration 31.6 nM", "value": 1.204},
      {"measurement": "Fold-change of caspase 3/7 activation", "setting": "[3]; HepG2, compound concentration 100 nM", "value": 0.853},
      {"measurement": "Fold-change of caspase 3/7 activation", "setting": "[3]; HepG2, compound concentration 316 nM", "value": 0.586},
      {"measurement": "Fold-change of caspase 3/7 activation", "setting": "[3]; HepG2, compound concentration 1000 nM", "value": 0.420},
      {"measurement": "Fold-change of caspase 3/7 activation", "setting": "[3]; HepG2, compound concentration 3160 nM", "value": 0.371},
      {"measurement": "Fold-change of caspase 3/7 activation", "setting": "[3]; HepG2, compound concentration 10000 nM", "value": 0.308},
      {"measurement": "Fold-change of caspase 3/7 activation", "setting": "[3]; HepG2, compound concentration 20000 nM", "value": 0.280},
      {"measurement": "IC50", "setting": "A549", "value": 1300, "unit": "nM"},
      {"measurement": "IC50", "setting": "HepG2 [4]", "value": 100, "unit": "nM"}
    ]}
  ]
}
